The assay deals with APN. As to the kind of experiment: APN expression in ST cells and porcine intestinal organoids (western blot, IFA). Format: cell-based. Particulars: PM 10 mM; for APN level, western blot, relative to WT without PM (=1) / APN level, western blot quantified by Image J, relative to no PM (=1): PRCV 0.1 MOI; for APN level, western blot quantified by Image J, relative to no PM (=1): ST cells. How it is done: Fig 5 PM blocks TGEV infection by degrading APN expression. (A, D, and G) ST cells (A) or intestinal organoids monolayer (D) or apical-out intestinal organoids (G) were treated with PM (10 mM) at 2, 4, 8, and 16 h, which was collected and determined by western blot. (B, E, and H) ST cells (B) or intestinal organoids monolayer (E) or apical-out intestinal organoids (H) were treated with PM (10 mM) at 16 h, which was measured by IFA, scale bar: 20 µm. (C, F, and I) ST cells (C) or intestinal organoids monolayer (F) or apical-out intestinal organoids (I) were treated with PM (10 mM) and infected with 0.1 MOI TGEV at 2, 4, 8, and 16 h. The cell samples were harvested and detected by western blot. (J) ST cells were transfected with empty vector or pCMV-HA-APN (pig) plasmids for 24 h, which was treated with H2O or PM and then infected with 0.1 MOI TGEV for 16 h. The cell samples were detected by western blot. All western blot results were calculated by Image J. All experiments were performed in triplicate.
Cotransfected cells were washed with cold PBS twice and lysed with NP40 lysis buffer (Beyotime, China, P0013F) supplemented with 1 mM PMSF (Beyotime, China, ST506) and phosphatase inhibitors (Beyotime, China, P1096). Lysis buffer containing cells was added to 20 µL of protein A+G agarose beads (Beyotime, China, P2055) and IgG (Santa Cruz, USA, 2025) on a rotating device for 4 h at 4°C to remove nonspecific proteins, after which the mixture was centrifuged at 2,500 rpm for 5 min. The supernatant was harvested, and anti-Flag/Myc/His/IgG antibodies were added to the samples on a rocking platform overnight at 4°C. Subsequently, 40 µL of protein A+G agarose beads were added to the supernatant containing the antibody, which was incubated for 4 h at 4°C on a rotating device. After washing with lysis buffer three times, the immunoprecipitates were collected by centrifugation, and the supernatant was discarded. Immunoprecipitated proteins were detected by western blotting. For the western blot, the proteins were separated by SDS‒PAGE and transferred onto a PVDF membrane (GE, USA, 10600023). The membranes were blocked in 5% nonfat milk at room temperature for 2 h and then incubated with specific primary antibodies overnight. Subsequently, the membrane was incubated with the secondary antibody for 1 h at room temperature. Finally, the proteins on the membranes were visualized with WesternBright ECL (Advansta, USA, K-12045-D50).
Fig. S5. PM blocks PRCV infection by degrading APN expression. (A) ST cells were treated with PM (10 mM) and infected with 0.1 MOI PRCV at 2 h, 4 h, 8 h and 16 h. The cell samples were harvested and determined by western blot. All western blot results were calculated by Image J. All experiments were performed in triplicate.
Fig. S8. PM inhibits PRCV infection by degrading APN via PIK3C3-mediated autophagy. (A-C) WT ST cells and PIK3C3 KO ST cells were treated with PM (10 mM) and infected with PRCV (0.1 MOI) for 16 h. Then the APN, PIK3C3, ATG14, BECN1, P62, PRCV N and LC3 were detected by western blot (A), and viral titers and PRCV N mRNA level were determined by TCID50 (B) and RT-qPCR (C) . (D-F) WT ST cells and PIK3C3 KO ST cells transfected with pCMV-Myc and pCMV-Myc-PIK3C3 respectively for 24 h were treated with PM (10 mM) and infected with PRCV (0.1 MOI) for 16 h. The APN, PIK3C3, P62, PRCV N and LC3 were determined by western blot (D). TCID50 (E) and RT-qPCR (F) were performed to detect viral titers and PRCV N m RNA level. All western blot results were calculated by Image J. Results are presented as mean ± SD of data from three independent experiments […]
A general note: Immunoblotting shows a protein as a band on a membrane.

With `[K+].[K+].[O]=[Mo](=[O])([O-])[O-]` [PM, potassium molybdate], the “APN level, western blot, relative to WT without PM (=1)” value came to 0.88 (Fig. S8A, PIK3C3 KO ST cells, 16 h); 0.15 (Fig. S8A, WT ST cells, 16 h); 0.14 (Fig. S8D, PIK3C3 KO ST cells with PIK3C3-Myc, 16 h); 0.87 (Fig. S8D, PIK3C3 KO ST cells without PIK3C3-Myc, 16 h); 0.1 (Fig. S8D, WT ST cells with pCMV-Myc, 16 h). In addition, the “APN expression in ST cells” value (2-16 h, western blot and IFA) is reported as “decreased APN expression in ST cells”. For the same molecule, where the note is “absence or presence of TGEV, different time points, western blot and IFA”, the “APN expression in intestinal organoid monolayers and apical-out organoids” value is reported as “decreased ex vivo APN expression”. In addition, the “APN level, western blot quantified by Image J, relative to no PM (=1)” value came to 0.53 (2 h), 0.31 (4 h), 0.19 (8 h) and 0.01 (16 h).
